{"source": "ChEMBL document CHEMBL1201862", "about": "“PubChem BioAssay data set” (2004)", "key": {"[1]": {"biological_target": "T1, Polyadenylate-binding protein 1 (Homo sapiens, UniProt P11940)", "T1 sequence (P11940 whole entry)": "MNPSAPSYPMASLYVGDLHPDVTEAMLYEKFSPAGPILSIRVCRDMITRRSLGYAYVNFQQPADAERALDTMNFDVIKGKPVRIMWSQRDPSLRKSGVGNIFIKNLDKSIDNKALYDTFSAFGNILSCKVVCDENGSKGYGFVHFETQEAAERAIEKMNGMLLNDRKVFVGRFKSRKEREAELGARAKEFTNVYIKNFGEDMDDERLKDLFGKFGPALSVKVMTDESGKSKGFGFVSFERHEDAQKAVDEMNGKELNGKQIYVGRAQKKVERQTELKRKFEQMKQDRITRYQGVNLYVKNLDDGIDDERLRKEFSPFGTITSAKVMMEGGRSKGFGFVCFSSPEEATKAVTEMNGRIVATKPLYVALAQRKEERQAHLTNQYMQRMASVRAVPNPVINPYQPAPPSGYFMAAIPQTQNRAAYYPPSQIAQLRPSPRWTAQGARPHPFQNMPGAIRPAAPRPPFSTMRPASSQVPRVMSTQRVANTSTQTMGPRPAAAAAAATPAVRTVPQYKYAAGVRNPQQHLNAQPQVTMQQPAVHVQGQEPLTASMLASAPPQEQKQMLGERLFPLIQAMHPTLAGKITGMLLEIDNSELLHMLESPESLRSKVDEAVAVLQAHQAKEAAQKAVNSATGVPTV", "assay": "PABP1 MLLE–PAM2 binding inhibitor potency, dose response, biochemical, fluorescence polarization, FITC-PAM2 peptide (AID 602259)", "assay_type": "functional", "conditions": "read-out: IC50_Mean"}, "[2]": {"biological_target": "T1, Polyadenylate-binding protein 1", "assay": "PABP1 MLLE–PAM2 interaction inhibitors, dose response, miRNA deadenylation inhibitor project, biochemical, fluorescence polarization, Cy5-PAM2 peptide, secondary (AID 602260)", "assay_type": "functional", "conditions": "read-out: IC50_Mean"}, "[3]": {"test_system": "BJ", "assay": "cytotoxicity toward BJ-TERT-LT-ST fibroblasts, dose response, cell-based, RAS-independent, luminescence (AID 1935);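 further: BJ fibroblasts immortalized with TERT plus LT and ST oncogenes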", "assay_type": "functional", "conditions": "Homo sapiens"}, "[4]": {"test_system": "BJ", "assay": "cytotoxicity toward BJ-TERT fibroblasts, dose response, cell-based, RAS-independent, luminescence (AID 1933)", "assay_type": "functional", "conditions": "Homo sapiens"}, "[5]": {"assay": "cytotoxicity toward DRD oncogenic fibroblasts, dose response, cell-based, non-viral oncogenic, luminescence (AID 1934)", "assay_type": "functional", "conditions": "Homo sapiens"}, "[6]": {"test_system": "BJ", "assay": "cells", "assay_type": "functional, cell-based", "conditions": "Homo sapiens"}, "[7]": {"biological_target": "Genome polyprotein (dengue virus type 2, UniProt P29990)", "sequence (P29990 2492-3391 limits assumed)": "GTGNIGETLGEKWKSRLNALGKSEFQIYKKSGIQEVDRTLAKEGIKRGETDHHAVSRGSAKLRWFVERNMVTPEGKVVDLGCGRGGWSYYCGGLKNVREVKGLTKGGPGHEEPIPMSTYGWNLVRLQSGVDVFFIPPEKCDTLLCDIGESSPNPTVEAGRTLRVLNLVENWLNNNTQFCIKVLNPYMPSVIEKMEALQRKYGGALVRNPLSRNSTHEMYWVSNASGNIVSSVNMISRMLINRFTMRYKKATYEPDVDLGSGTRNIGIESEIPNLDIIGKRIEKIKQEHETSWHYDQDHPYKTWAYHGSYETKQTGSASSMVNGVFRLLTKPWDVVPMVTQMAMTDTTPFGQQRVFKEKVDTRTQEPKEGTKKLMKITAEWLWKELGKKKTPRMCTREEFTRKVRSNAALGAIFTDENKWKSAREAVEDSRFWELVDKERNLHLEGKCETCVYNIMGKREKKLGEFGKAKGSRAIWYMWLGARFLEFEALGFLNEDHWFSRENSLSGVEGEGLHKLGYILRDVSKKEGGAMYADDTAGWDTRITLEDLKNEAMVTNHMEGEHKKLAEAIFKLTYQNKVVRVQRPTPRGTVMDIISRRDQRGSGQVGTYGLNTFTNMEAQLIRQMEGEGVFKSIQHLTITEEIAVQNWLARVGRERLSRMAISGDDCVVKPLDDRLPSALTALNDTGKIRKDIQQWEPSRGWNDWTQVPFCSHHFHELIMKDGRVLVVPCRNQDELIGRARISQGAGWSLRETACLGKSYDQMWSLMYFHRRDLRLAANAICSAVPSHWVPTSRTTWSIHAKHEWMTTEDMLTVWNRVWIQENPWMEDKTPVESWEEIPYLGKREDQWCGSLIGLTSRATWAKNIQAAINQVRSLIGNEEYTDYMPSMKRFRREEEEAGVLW", "assay": "Dengue-2 NS5 methyltransferase inhibitors, primary screen, biochemical, confirmation dose response (AID 588689)", "assay_type": "functional"}, "[8]": {"biological_target": "T2, Corticotropin-releasing factor receptor 2/Corticotropin-releasing factor-binding protein (Homo sapiens, UniProt P24387+Q13324)", "T2 sequence (Q13324 whole entry)": "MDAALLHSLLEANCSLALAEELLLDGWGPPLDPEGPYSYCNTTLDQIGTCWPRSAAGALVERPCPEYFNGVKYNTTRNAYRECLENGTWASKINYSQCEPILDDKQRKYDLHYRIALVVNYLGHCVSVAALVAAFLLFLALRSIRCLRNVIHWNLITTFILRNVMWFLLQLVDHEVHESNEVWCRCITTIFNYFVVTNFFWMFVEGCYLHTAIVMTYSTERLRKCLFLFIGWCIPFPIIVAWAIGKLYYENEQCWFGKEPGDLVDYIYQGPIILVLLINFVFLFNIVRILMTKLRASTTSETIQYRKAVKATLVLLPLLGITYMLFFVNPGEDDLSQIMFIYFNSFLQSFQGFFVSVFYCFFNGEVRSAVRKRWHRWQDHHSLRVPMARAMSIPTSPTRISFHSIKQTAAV", "T2 sequence (P24387 whole entry)": "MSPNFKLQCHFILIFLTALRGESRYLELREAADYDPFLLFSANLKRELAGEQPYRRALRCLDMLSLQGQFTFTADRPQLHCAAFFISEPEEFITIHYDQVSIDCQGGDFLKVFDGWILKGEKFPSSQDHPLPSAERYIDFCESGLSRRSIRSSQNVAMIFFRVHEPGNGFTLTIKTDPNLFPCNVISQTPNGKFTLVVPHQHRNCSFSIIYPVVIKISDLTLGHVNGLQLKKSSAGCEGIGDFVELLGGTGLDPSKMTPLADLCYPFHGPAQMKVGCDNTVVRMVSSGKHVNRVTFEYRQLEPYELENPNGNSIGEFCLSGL", "assay": "Dose Response confirmation of uHTS hits for small molecule antagonists of the CRF-binding protein and CRF-R2 receptor complex.", "assay_type": "functional", "conditions": "read-out: IC50_Mean"}, "[9]": {"biological_target": "T2, Corticotropin-releasing factor receptor 2/Corticotropin-releasing factor-binding protein", "assay": "activators of CRF receptor 2 with binding protein – uHTS hits, confirmation (AID 602473)", "assay_type": "functional", "conditions": "read-out: EC50_Mean"}, "[10]": {"assay": "intracellular Trypanosoma cruzi inhibitors in host cells – cell-based, plate reader, cherry-pick samples, set 3, dose response (AID 651818);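 further: compounds incubated with infected cells for about four days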", "assay_type": "functional"}}, "note": "The source made the active and inactive calls."}
{"smiles": "O=C(CSc1nncc2ccccc12)N1CCOCC1", "values": [{"measurement": "IC50", "setting": "[1]", "value": "> 66 µM (inactive)"}, {"measurement": "IC50", "setting": "[2]", "value": "> 66 µM (inactive)"}]}
{"smiles": "CN(C)c1ccc(C(=O)c2ccccc2C(=O)O)cc1[N+](=O)[O-]", "values": [{"measurement": "EC50", "setting": "[3]", "value": "> 150 µM (not active)"}, {"measurement": "EC50", "setting": "[4]", "value": "> 150 µM (not active)"}, {"measurement": "EC50", "setting": "[5]", "value": "102 µM (active)"}, {"measurement": "EC50", "setting": "[6]", "value": "> 150 µM (not active)"}]}
{"smiles": "CC(C)(C)C(=O)Nc1c2c(nn1-c1ccc(F)cc1)CSC2", "values": [{"measurement": "IC50", "setting": "[1]", "value": "> 66 µM (inactive)"}, {"measurement": "IC50", "setting": "[2]", "value": "> 66 µM (inactive)"}]}
{"smiles": "O=C1CC(SC(=S)C2CCCC2=O)C(=O)N1", "note": "(stereo unspecified)", "values": [{"measurement": "IC50", "setting": "[1]", "value": "> 66 µM (inactive)"}, {"measurement": "IC50", "setting": "[2]", "value": "> 66 µM (inactive)"}, {"measurement": "IC50", "setting": "[7]", "value": "45.4 µM (active)"}]}
{"smiles": "Cc1ccsc1C(=O)N/N=C/c1ccc2c(c1)OCO2", "values": [{"measurement": "EC50", "setting": "[3]", "value": "> 150 µM (inconclusive)"}, {"measurement": "EC50", "setting": "[4]", "value": "15.4 µM (active)"}, {"measurement": "EC50", "setting": "[5]", "value": "9.95 µM (inconclusive)"}, {"measurement": "EC50", "setting": "[6]", "value": "11.6 µM (inconclusive)"}]}
{"smiles": "C/C(=N\\Nc1cc(C)nc(-c2ccccc2)n1)c1cccc([N+](=O)[O-])c1", "values": [{"measurement": "IC50", "setting": "[8]", "value": "> 47.1 µM (inactive)"}, {"measurement": "EC50", "setting": "[9]", "value": "> 53 µM (inactive)"}]}
{"smiles": "Cc1n[nH]c2c(=S)[nH]c(=O)[nH]c12", "values": [{"measurement": "IC50", "setting": "[1]", "value": "> 66 µM (inactive)"}, {"measurement": "IC50", "setting": "[2]", "value": "> 66 µM (inactive)"}]}
{"smiles": "C[C@H](CO)N1C[C@H](C)[C@H](CN(C)Cc2ccc(C(F)(F)F)cc2)Oc2ccc(NC(=O)Nc3cccc4ccccc34)cc2C1=O", "values": [{"measurement": "AC50", "setting": "[10]", "value": "2.81 µM (active)"}]}
{"smiles": "C[C@@H]1CCCCO[C@@H](CN(C)C(=O)Nc2ccc(C(F)(F)F)cc2)[C@@H](C)CN([C@H](C)CO)C(=O)c2cc(NS(=O)(=O)c3ccc(F)cc3)ccc2O1", "values": [{"measurement": "AC50", "setting": "[10]", "value": "1.85 µM (active)"}]}
{"smiles": "C[C@@H]1CN([C@H](C)CO)C(=O)Cc2cc(NC(=O)C3CCCCC3)ccc2O[C@H]1CN(C)Cc1ccc(Oc2ccccc2)cc1", "values": [{"measurement": "AC50", "setting": "[10]", "value": "2.45 µM (active)"}]}
{"smiles": "C[C@@H]1CN([C@H](C)CO)C(=O)c2cccc(NC(=O)Nc3ccc(C(F)(F)F)cc3)c2O[C@H]1CN(C)C(=O)Nc1ccc2c(c1)OCO2", "values": [{"measurement": "AC50", "setting": "[10]", "value": "6.12 µM (active)"}]}
{"smiles": "C[C@H]1CN([C@@H](C)CO)C(=O)Cc2cc(NC(=O)CCCCCC(=O)Nc3ccccc3N)ccc2O[C@@H]1CN(C)Cc1ccc(C(F)(F)F)cc1", "values": [{"measurement": "AC50", "setting": "[10]", "value": "5.01 µM (active)"}]}
{"smiles": "C[C@H](CO)N1C[C@H](C)[C@H](CN(C)Cc2ccc(Oc3ccccc3)cc2)Oc2c(NC(=O)c3cnccn3)cccc2C1=O", "values": [{"measurement": "AC50", "setting": "[10]", "value": "5.22 µM (active)"}]}
{"smiles": "COc1ccc(S(=O)(=O)N(C)C[C@@H]2OCCCC[C@@H](C)Oc3ccc(NC(=O)Nc4ccc(C(F)(F)F)cc4)cc3C(=O)N([C@H](C)CO)C[C@@H]2C)cc1", "values": [{"measurement": "AC50", "setting": "[10]", "value": "5.92 µM (active)"}]}
